# Legend:
# [1] = tested on: formalin-induced tonic flinch responses; settings: rat, in vivo
# [2] = tested on: heart rate and arterial blood pressure; settings: rat, in vivo
# [3] = tested on: formalin-induced tonic flinch responses; settings: rat, in vivo; cited from earlier work
# [4] = tested on: thermal (heat) response latencies; settings: rat, in vivo
# [5] = tested on: GI transit; settings: rat, in vivo
structure (smiles),measurement,setting,value
"NCC(CC(=O)O)c1ccc(Cl)cc1 (stereo not drawn) [baclofen, γ-amino-β-(p-chlorophenyl) butyric acid]",formalin-induced tonic (persistent) pain behavior,[1],dose-dependent reductions
CCCCN1CCCCC1C(=O)Nc1c(C)cccc1C (stereo not drawn) [bupivacaine],formalin-induced tonic (persistent) pain behavior,[1],did not significantly inhibit
same,hindpaw paralysis,[1],immediate but transient hindpaw paralysis
"Clc1cccc(Cl)c1N=C1NCCN1 [clonidine, 2,6-dichloro-N-2-imidazolidinylidenebenzenamine]",formalin-induced tonic (persistent) pain behavior,[1],dose-dependently suppressed
same,heart rate,[2],dose-dependent bradycardia
"CN1CC[C@]23c4c5ccc(O)c4OC2C(O)C=C[C@H]3[C@H]1C5 (stereo partly drawn) [morphine, 7,8-didehydro-4,5-epoxy-17-methylmorphinan-3,6-diol]",tonic formalin-induced flinching behavior after six days infusion,[3],significantly reduced
same,development of tolerance to analgesic effects,[4],declined in magnitude
same,thermal (heat) response latencies,[4],moderately antinociceptive
same,GI transit,[5],dose-dependent inhibition

# From patent publication US10307463B2 (priority 2003, dated 2019)
